Data published in patent US9403830B2, “Inhibitors of leukotriene production” (Boehringer Ingelheim International GmbH, priority 2012, dated 2016).

What was measured:
human LTA4 hydrolase = target: T1, human LTA4 hydrolase (Homo sapiens, UniProt P09960); experiment: LTA4H Enzyme assay (peptidase, Arg-AMC cleavage); type: biochemical; conditions: LTA4H enzyme 1 nM, Arg-AMC substrate 50 μM, room temperature 1 h, fluorescence 380/460 nm
T1 sequence (P09960 1-611): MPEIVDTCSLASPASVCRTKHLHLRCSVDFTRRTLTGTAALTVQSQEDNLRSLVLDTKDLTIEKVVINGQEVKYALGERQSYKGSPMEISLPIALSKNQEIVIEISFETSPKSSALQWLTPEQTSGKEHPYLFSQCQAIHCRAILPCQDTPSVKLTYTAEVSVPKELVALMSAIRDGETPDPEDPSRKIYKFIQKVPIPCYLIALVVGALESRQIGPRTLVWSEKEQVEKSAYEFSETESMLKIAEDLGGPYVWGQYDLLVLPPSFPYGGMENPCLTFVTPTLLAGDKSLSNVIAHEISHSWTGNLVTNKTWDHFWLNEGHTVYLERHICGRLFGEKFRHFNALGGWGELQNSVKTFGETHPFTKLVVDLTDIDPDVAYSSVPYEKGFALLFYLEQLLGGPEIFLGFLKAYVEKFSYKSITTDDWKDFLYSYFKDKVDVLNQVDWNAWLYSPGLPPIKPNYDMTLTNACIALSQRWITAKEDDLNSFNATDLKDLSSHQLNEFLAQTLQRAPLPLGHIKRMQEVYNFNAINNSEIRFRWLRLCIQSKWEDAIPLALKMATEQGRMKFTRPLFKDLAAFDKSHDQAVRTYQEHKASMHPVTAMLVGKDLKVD
Method: The compounds of the invention are assessed for the ability to interact with human LTA4 hydrolase in an enzymatic assay that measures the ability of the enzyme to cleave the peptide bond of arginyl-aminomethylcoumarin (Arg-AMC). LTA4H Enzyme (1 nM final), Arg-AMC substrate (50 μM final), and compound are combined in a reaction buffer (50 mM Tris-HCl (pH 7.5), 100 mM KCl, 0.5% bovine serum albumin) at room temperature for 1 h. The formation of product is assessed by measuring the fluorescence of aminomethylcoumarin product (excitation wavelength 380 nm/emission wavelength 460 nm). In general, the preferred potency range (IC50) of compounds in the LTA4H Enzyme assay is between 0.1 nM to 10 μM, the more preferred potency range is 0.1 nM to 0.1 μM, and the most preferred potency range is 0.1 nM to 10 nM.

[1] = test system: LTB4 synthesis in human whole blood; experiment: human whole blood (HWB) assay, inhibition of LTB4 production; type: cell-based; conditions: heparinized human whole blood, calcimycin 20 μM stimulation, plasma LTB4
Method: The compounds of the invention are additionally tested in a human whole blood (HWB) assay to determine their ability to inhibit the synthesis of LTB4 in a cellular system. Compounds are combined with heparinized human whole blood and incubated for 15 minutes at 37° C. Calcimycin (20 μM final, prepared in phosphate-buffered saline, pH 7.4) is then added and the mixture is incubated for another 30 minutes at 37° C. The samples are centrifuged for 5 min at low speed (1500×g) and the plasma layer is removed. Plasma LTB4 concentrations are then measured using an antibody-based homogenous time-resolved fluorescence method (CisBio, Bedford, Mass.). In general, the preferred potency range (IC50) of compounds in the HWB assay is between 10 nM to 10 μM, the more preferred potency range is 10 nM to 1 μM, and the most preferred potency range is 10 nM to 100 nM.

Q: What does the source list for `CC(C)C(=O)N1CCN(Cc2ccc3cc(Oc4ccc(-c5ccn[nH]5)cn4)ccc3n2)CC1` [Example 26, 2-Methyl-1-(4-{6-[5-(2H-pyrazol-3-yl)-pyridin-2-yloxy]-quinolin-2-ylmethyl}-piperazin-1-yl)-propan-1-one]?
A: IC50 (human LTA4 hydrolase): 0.57 nM; IC50 [1]: 130 nM

Q: For `O=C(CO)N1CCN(Cc2ccc3cc(Oc4ccc(-c5ccn[nH]5)cn4)ccc3n2)CC1` [Example 27, 2-Hydroxy-1-(4-{6-[5-(2H-pyrazol-3-yl)-pyridin-2-yloxy]-quinolin-2-ylmethyl}-piperazin-1-yl)-ethanone], which IC50 (human LTA4 hydrolase) is on record?
A: 0.72 nM

Q: What about the IC50 [1] of the same compound?
A: 150 nM

Q: `COCC(=O)N1CCN(Cc2ccc3cc(Oc4ccc(-c5ccn[nH]5)cn4)ccc3n2)CC1` [Example 28, 2-methoxy-1-(4-{6-[5-(2H-pyrazol-3-yl)-pyridin-2-yloxy]-quinolin-2-ylmethyl}-piperazin-1-yl)-ethanone] was tested. Which IC50 (human LTA4 hydrolase) did it give?
A: 0.87 nM

Q: And the IC50 [1]?
A: 150 nM

Q: Which results are given for `CCC(=O)N1CCN(Cc2ccc3cc(Oc4ccc(-c5ccn[nH]5)cn4)ccc3n2)CC1` [Example 29, 1-(4-{6-[5-(2H-Pyrazol-3-yl)-pyridin-2-yloxy]-quinolin-2-ylmethyl}-piperazin-1-yl)-propan-1-one]?
A: IC50 (human LTA4 hydrolase): 0.66 nM; IC50 [1]: 190 nM

Q: `O=C1CCC2(CCN(Cc3ccc4cc(Oc5ccc(-c6ccn[nH]6)cn5)ccc4n3)CC2)N1` [Example 30, 8-{6-[5-(2H-Pyrazol-3-yl)-pyridin-2-yloxy]-quinolin-2-ylmethyl}-1,8-diaza-spiro[4.5]decan-2-one] was tested. Which IC50 (human LTA4 hydrolase) did it give?
A: 1.1 nM

Q: And the IC50 [1]?
A: 190 nM

Q: What does the source list for `N#CCC(=O)N1CCN(Cc2ccc3cc(Oc4ccc(-c5ccn[nH]5)cn4)ccc3n2)CC1` [Example 31, 3-Oxa-3-(4-{6-[5-(2H-pyrazol-3-yl)-pyridin-2-yloxy]-quinolin-2-ylmethyl}-piperazin-1-yl)-propionitrile]?
A: IC50 (human LTA4 hydrolase): 1 nM; IC50 [1]: 200 nM

Q: Which IC50 (human LTA4 hydrolase) does the source give for `CC(=O)N1CC2CN(Cc3ccc4cc(Oc5ccc(-c6ccn[nH]6)cn5)ccc4n3)CC2C1` (stereo not drawn) [Example 32, 1-(5-{6-[5-(2H-Pyrazol-3-yl)-pyridin-2-yloxy]-quinolin-2-ylmethyl}-hexahydro-pyrrolo[3,4-c]pyrrol-2-yl)-ethanone] here?
A: 0.85 nM

Q: What about the IC50 [1] of the same compound?
A: 210 nM

Q: How did the IC50 (human LTA4 hydrolase) turn out when `CN(C(=O)CO)C1CCN(Cc2ccc3cc(Oc4ccc(-c5ccn[nH]5)cn4)ccc3n2)CC1` [Example 33, 2-Hydroxy-N-methyl-N-(1-{6-[5-(2H-pyrazol-3-yl)-pyridin-2-yloxy]-quinolin-2-ylmethyl}-piperidin-4-yl)-acetamide] was run?
A: 0.77 nM

Q: What about the IC50 [1] of the same compound?
A: 230 nM

Q: Which IC50 (human LTA4 hydrolase) does the source give for `C[C@@H](NCc1ccc2cc(Oc3ccc(-c4ccn[nH]4)cn3)ccc2n1)C(N)=O` [Example 34, (R)-2-({6-[5-(2H-Pyrazol-3-yl)-pyridin-2-yloxy]-quinolin-2-ylmethyl}-amino)-propionamide] here?
A: 5.7 nM

Q: What about the IC50 [1] of the same compound?
A: 800 nM

Q: What does the source list for `NC(=O)[C@H]1[C@@H]2CN(Cc3ccc4cc(Oc5ccc(-c6ccn[nH]6)cn5)ccc4n3)C[C@@H]21` [Example 35, (1α,5α,6α)-3-{6-[5-(2H-Pyrazol-3-yl)-pyridin-2-yloxy]-quinolin-2-ylmethyl}-3-aza-bicyclo[3.1.0]hexane-6-carboxylic acid amide]?
A: IC50 (human LTA4 hydrolase): 0.49 nM; IC50 [1]: 220 nM

Q: With `CC(=O)N1CC(CN(C)Cc2ccc3cc(Oc4ccc(-c5ccn[nH]5)cn4)ccc3n2)C1` [Example 36, 1-{3-[(Methyl-{6-[5-(2H-pyrazol-3-yl)-pyridin-2-yloxy]-quinolin-2-ylmethyl}-amino)-methyl]-azetidin-1-yl}-ethanone] as the compound, how does the IC50 (human LTA4 hydrolase) read?
A: 0.98 nM

Q: What about the IC50 [1] of the same compound?
A: 240 nM

Q: What does the source list for `CC(=O)N(C)C1CCN(Cc2ccc3cc(Oc4ccc(-c5ccn[nH]5)cn4)ccc3n2)CC1` [Example 37, N-Methyl-N-(1-{6-[5-(2H-pyrazol-3-yl)-pyridin-2-yloxy]-quinolin-2-ylmethyl}-piperidin-4-yl)-acetamide]?
A: IC50 (human LTA4 hydrolase): 0.86 nM; IC50 [1]: 270 nM

Q: For `C[C@@H]1CN(C(=O)CO)CCN1Cc1ccc2cc(Oc3ccc(-c4ccn[nH]4)cn3)ccc2n1` [Example 38, 2-Hydroxy-1-((R)-3-methyl-4-{6-[5-(2H-pyrazol-3-yl)-pyridin-2-yloxy]-quinolin-2-ylmethyl}-piperazin-1-yl)-ethanone], which IC50 (human LTA4 hydrolase) is on record?
A: 0.76 nM

Q: And the IC50 [1]?
A: 280 nM

Q: With `CS(=O)(=O)CC(=O)N1CCN(Cc2ccc3cc(Oc4ccc(-c5ccn[nH]5)cn4)ccc3n2)CC1` [Example 39, 2-Methanesulfonyl-1-(4-{6-[5-(2H-pyrazol-3-yl)-pyridin-2-yloxy]-quinolin-2-ylmethyl}-piperazin-1-yl)-ethanone] as the compound, how does the IC50 (human LTA4 hydrolase) read?
A: 2 nM

Q: What about the IC50 [1] of the same compound?
A: 280 nM

Q: For `CC(C)(O)CNC(=O)[C@H]1[C@@H]2CN(Cc3ccc4cc(Oc5ccc(-c6ccn[nH]6)cn5)ccc4n3)C[C@@H]21` [Example 40, (1α,5α,6α)-3-{6-[5-(2H-Pyrazol-3-yl)-pyridin-2-yloxy]-quinolin-2-ylmethyl}-3-aza-bicyclo[3.1.0]hexane-6-carboxylic acid (2-hydroxy-2-methyl-propyl)-amide], which IC50 (human LTA4 hydrolase) is on record?
A: 0.47 nM

Q: What about the IC50 [1] of the same compound?
A: 300 nM

Q: For `CC(=O)NC[C@@H]1[C@H]2CN(Cc3ccc4cc(Oc5ccc(-c6ccn[nH]6)cn5)ccc4n3)C[C@@H]12` [Example 41, N-((1α,5α,6α)-3-{6-[5-(2H-Pyrazol-3-yl)-pyridin-2-yloxy]-quinolin-2-ylmethyl}-3-aza-bicyclo[3.1.0]hex-6-ylmethyl)-acetamide], which IC50 (human LTA4 hydrolase) is on record?
A: 0.99 nM

Q: What about the IC50 [1] of the same compound?
A: 320 nM

Q: `CC(=O)N1CCN(Cc2ccc3cc(Oc4ccc(-c5ccn[nH]5)cn4)ccc3n2)[C@H](CO)C1` [Example 42, 1-((S)-3-Hydroxymethyl-4-{6-[5-(2H-pyrazol-3-yl)-pyridin-2-yloxy]-quinolin-2-ylmethyl}-piperazin-1-yl)-ethanone] was tested. Which IC50 (human LTA4 hydrolase) did it give?
A: 0.88 nM

Q: And the IC50 [1]?
A: 360 nM

Q: For `NC(=O)N1CCN(Cc2ccc3cc(Oc4ccc(-c5ccn[nH]5)cn4)ccc3n2)CC1` [Example 43, 4-{6-[5-(2H-Pyrazol-3-yl)-pyridin-2-yloxy]-quinolin-2-ylmethyl}-piperazine-1-carboxylic acid amide], which IC50 (human LTA4 hydrolase) is on record?
A: 3.9 nM

Q: And the IC50 [1]?
A: 380 nM

Q: Which results are given for `O=C(CO)N1C2CCC1CN(Cc1ccc3cc(Oc4ccc(-c5ccn[nH]5)cn4)ccc3n1)C2` [Example 44, 2-Hydroxy-1-(3-{6-[5-(2H-pyrazol-3-yl)-pyridin-2-yloxy]-quinolin-2-ylmethyl}-3,8-diaza-bicyclo[3.2.1]oct-8-yl)-ethanone]?
A: IC50 (human LTA4 hydrolase): 0.71 nM; IC50 [1]: 410 nM

Q: Which IC50 (human LTA4 hydrolase) does the source give for `O=C(CNCc1ccc2cc(Oc3ccc(-c4ccn[nH]4)cn3)ccc2n1)N1CCCC1` [Example 45, 2-({6-[5-(2H-Pyrazol-3-yl)-pyridin-2-yloxy]-quinolin-2-ylmethyl}-amino)-1-pyrrolidin-1-yl-ethanone] here?
A: 2.8 nM

Q: And the IC50 [1]?
A: 420 nM

Q: For `CC1(NC(=O)CO)CCN(Cc2ccc3cc(Oc4ccc(-c5ccn[nH]5)cn4)ccc3n2)CC1` [Example 46, 2-Hydroxy-N-(4-methyl-1-{6-[5-(2H-pyrazol-3-yl)-pyridin-2-yloxy]-quinolin-2-ylmethyl}-piperidin-4-yl)-acetamide], which IC50 (human LTA4 hydrolase) is on record?
A: 1.6 nM

Q: And the IC50 [1]?
A: 540 nM

Q: Which IC50 (human LTA4 hydrolase) does the source give for `CN(CC(N)=O)Cc1ccc2cc(Oc3ccc(-c4ccn[nH]4)cn3)ccc2n1` [Example 47, 2-(Methyl-{6-[5-(2H-pyrazol-3-yl)-pyridin-2-yloxy]-quinolin-2-ylmethyl}-amino)-acetamide] here?
A: 1.3 nM

Q: And the IC50 [1]?
A: 570 nM

Q: What does the source list for `c1cc(-c2ccc(Oc3ccc4nc(CN5CCCC6(COC6)C5)ccc4c3)nc2)[nH]n1` [Example 48, 2-(2-Oxa-6-aza-spiro[3.5]non-6-ylmethyl)-6-[5-(2H-pyrazol-3-yl)-pyridin-2-yloxy]-quinoline]?
A: IC50 (human LTA4 hydrolase): 2.1 nM; IC50 [1]: 740 nM

Q: What does the source list for `O=C1NCC[C@@H]1NCc1ccc2cc(Oc3ccc(-c4ccn[nH]4)cn3)ccc2n1` [Example 49, (S)-3-({6-[5-(2H-Pyrazol-3-yl)-pyridin-2-yloxy]-quinolin-2-ylmethyl}-amino)-pyrrolidin-2-one]?
A: IC50 (human LTA4 hydrolase): 8.9 nM; IC50 [1]: 860 nM
